The term melting point denotes the temperature of the solid-liquid transition.

Regarding `CCCNc1nc(=O)n(CC2CC2)c2nc(C(C)C)[nH]c12`, the melting point was 208 to 210 °C.

In turn, `Cc1c(NC(=O)c2ccc(-c3ccccc3)cc2F)ccc2cc(CN3CCCCC3)cnc12` displayed a melting point of 187 to 188 °C.

Regarding `CCn1nc2c(N)nc3ccccc3c2c1CO`, the melting point lay within 255 to 256 °C.

`CCS(=O)(=O)N=CNCc1nc(-c2csc(N=C(N)N)n2)cs1`: the melting point is 216 to 217 °C.

Compound `CCC1(O)CCC2C3=C(CCC21C)c1ccc(OC)cc1CC3` (centres undefined) registered a melting point of 105 to 120 °C.

As for `CSCCSC1=C(O)CC(C)(C)CC1=O`, the melting point fell in the range of 57 to 59 °C.

In turn, `CCOC(=O)c1c(N2CCN(C)CC2)c2cc(C)ccc2n(-c2ccccc2)c1=O` registered a melting point of 188 °C.

`O=C(N[C@H](Cc1ccc(C(F)(F)F)cc1)[C@@H](O)c1cccc(F)c1)c1cccc2c1C=CCCC2` (racemic) registered a melting point of 151 to 152 °C.

Take `Cc1nc(SCc2ccc(Cl)cc2)nc2c1CCCC2`: the melting point turned out to be 48 °C.

`CC(=O)N1c2ccccc2OP1c1ccccc1` (centres undefined) registered a melting point of 73 to 75 °C.

Turning to `NS(=O)(=O)c1ccc(-c2c(-c3ccccc3)noc2CC(=O)C(F)(F)F)cc1`, the melting point is 132 to 139 °C.

As to `CC1CCN(Cc2cc(COc3cccc4c3CN(C3CCC(=O)NC3=O)C4=O)on2)CC1` (centres undefined), the melting point lay within 168 to 170 °C.

In turn, `Cc1nc2n(C)nc(C)n2c(=O)c1CCCl` displayed a melting point of 140 °C.

In the case of `Cc1ccnc(N2CCN(C(=O)CCCC3Cn4c(-c5cc(C)c(O)c(C)c5)c(C)c5cccc(c54)O3)CC2)c1` (centres undefined), the melting point is 112 °C.

For `Cc1ccc(N(c2ccc(-c3ccccc3)cc2)c2ccc(C)c(C)c2)cc1`, the melting point is 128 to 130 °C.

Compound `Cn1cc(-c2cccc(C(F)(F)F)c2)c(=O)c(-c2ccc(F)cc2Cl)c1` gave a melting point of 183 to 186 °C.

In turn, `O=C(OCCO)c1nc(Cl)c(Cl)[nH]1` gave a melting point of 170 °C.

`COc1ccc(-c2cc(-c3ccccc3)c(-c3ccccc3)s2)c(OC)c1`: the melting point was 107 to 110 °C.

Turning to `NCc1ccc(-n2c(-c3cccnc3N)nc3ccc(-c4cn[nH]c4)nc32)cc1`, the melting point lay within 264 to 269 °C.

On to `CCCN(CCN)CCNC(=O)c1nc(Cl)c(N)nc1N`, for which the melting point lay within 91 to 94 °C.

With `COc1ccc2[nH]c(C(C)=O)cc2c1`, the melting point is 164 to 167 °C.

As to `O=S(=O)(c1ccc(Cl)cc1)C(c1cc(F)ccc1F)c1cc(NCc2ccncc2)ncc1Cl` (centres undefined), the melting point fell in the range of 141 to 142 °C.

As for `N#Cc1c(N2CCCC2)cccc1[N+](=O)[O-]`, the melting point was 111 to 113 °C.

With `CNCc1ccc(Cc2nc3ccccc3[nH]2)cc1`, the melting point is 157 to 160 °C.

Turning to `CCOC(=O)c1ccc2c(c1)CCC(=Cc1cccnc1)C2=O`, the melting point was in the range of 112 to 114 °C.

`CC(=O)NC[C@H]1CN(c2ccc3c(c2)CCS(=O)(=O)CC3)C(=O)O1` yielded a melting point of 142 to 144 °C.

The compound `O=C1c2ccccc2S(=O)(=O)N1CCCCOc1ccccc1` returned a melting point of 92 to 94 °C.

Compound `COCSc1nccn1-c1cccc(C2=Nc3ccc(-c4ccccc4F)cc3NC(=O)C2)c1` displayed a melting point of 189 to 190 °C.

Consider `Clc1cc(Cl)c2c(c1)C[C@@H]1CCc3ccccc3[C@@H]1O2` (relative stereo), for which the melting point fell in the range of 141 to 144 °C.

As for `CCCCCCCCCC(Oc1ccc(C2=CCCCCC2)cc1)C(=O)O` (centres undefined), the melting point is 79 to 81 °C.

The compound `CCOC(=O)Cc1cccc(-c2nc(COc3ccc(CCl)cc3OC)c(C)o2)c1` showed a melting point of 95 to 96 °C.

For `COc1cc(-c2nc3ccccc3[nH]2)cc([N+](=O)[O-])c1O`, the melting point fell in the range of 198 to 200 °C.

With `O=C(CC(O)c1ccccc1)NCc1ccccc1[N+](=O)[O-]` (centres undefined), the melting point was 145 °C.

As for `CCOC(=O)c1ccc(OCc2nc(-c3ccco3)oc2C)c(Cl)c1`, the melting point is 145 to 146 °C.

For `Cc1c(C(F)(F)F)n[nH]c1-c1ccc(Cl)cc1`, the melting point is 139 °C.

Compound `CC(=O)C1=Cc2ccccc2NN=C1` registered a melting point of 66 to 68 °C.

For the compound `Ic1ccc2c(c1)Cc1cc(I)ccc1-2`, the melting point lay in the range of 203 to 207 °C.

Regarding `Cc1c(Sc2ccccc2)c2cccc3c2n1C(CN1CCOCC1)CO3` (single isomer, unassigned; (+)), the melting point is 126 to 128 °C.

Take `CC(C)(C)OC(=O)c1cn(-c2ccc(Cl)cc2)c(-c2ccc(Cl)cc2Cl)n1`: the melting point lay within 179 to 181 °C.

The compound `CCOC(=O)C(=Cc1cccn2c(Br)cnc12)N=[N+]=[N-]` displayed a melting point of 90 to 92 °C.

`CS(=O)(=O)c1ccc(-c2cnn(CCc3ccccc3)c(=O)c2-c2ccc(F)cc2)cc1` gave a melting point of 170 to 171 °C.

As for `N=C(C1=C(O)C(=O)c2ccccc2C1=O)c1ccccc1`, the melting point lay in the range of 258 to 259 °C.

Compound `O=c1[nH]c2cc(NO)ccc2c(=O)n1CCCCN1CC=C(c2ccccc2)CC1` showed a melting point of 187 to 189 °C.

`CCc1nc2c(C)cc(C)nc2n1Cc1ccc2oc(-c3ccccc3NS(=O)(=O)C(F)(F)F)c(Br)c2c1` registered a melting point of 90 to 95 °C.

As to `O=[N+]([O-])c1cc(OC2CCCC2)c(Cl)cc1F`, the melting point was in the range of 58 to 62.6 °C.

`CCN(CC)C(=O)c1cnn(C)c1C(=O)Nc1ccn2nc(N3CCOCC3)nc2c1` yielded a melting point of 165 to 167 °C.

Consider `COc1ccc2c(c1)Oc1c(ccc(OC)c1C(OC)OC)C2(C)C`, for which the melting point lay within 60 to 62 °C.

As for `CC1(C)CC(=O)C(C(=O)c2cccc3nnsc23)C(=O)C1`, the melting point lay within 168 to 170 °C.

For the compound `COc1nc2ccccc2cc1C=O`, the melting point is 92 to 93 °C.

Consider `COCc1ccc(CC(C)NCC(O)c2ccc(O)c(CO)c2)cc1` (centres undefined), for which the melting point was 81 to 92 °C.

In turn, `CCCCCn1c(C2=CC(=O)c3ccccc3C2=O)ccc1C1=CC(=O)c2ccccc2C1=O` returned a melting point of 128 °C.

With `COc1cc(Cl)cc(C)c1Nc1nc2c(Cl)ccc(C(=C(C)C)C(C)C)c2n1C`, the melting point was in the range of 166 to 168 °C.

Take `CCOC(=O)C(C)(C)n1c(=O)[nH]c2ccc(Cl)cc2c1=O`: the melting point lay within 179 to 180 °C.

`CC(/C=C/c1sccc1-c1cc2c(cc1C)C(C)(C)CCC2(C)C)=C\C(=O)O` gave a melting point of 208 to 209 °C.

As for `O=C(Oc1cc([N+](=O)[O-])ccc1[N+](=O)[O-])c1cc2ccccc2oc1=O`, the melting point lay in the range of 223 to 225 °C.

For the compound `CN1C(O)=C(C(=O)NCc2ccccc2)c2ccsc2S1(=O)=O`, the melting point was in the range of 176 to 177 °C.

Regarding `Cc1cccc(-c2nc3cccnn3c2-c2ccnc(N[C@@H](C)c3ccccc3)c2)c1`, the melting point was in the range of 154 to 155 °C.

Take `CCS(=O)(=O)NC1CCCCc2ccc(F)cc21` (centres undefined): the melting point was 118 to 121 °C.

`C=CCN1CCCC1CNC(=O)c1cc(S(=O)(=O)NC)cc2c1OCCO2` (centres undefined) yielded a melting point of 101 to 102 °C.

`COC(=O)c1c[nH]c(C=O)c1` gave a melting point of 97 to 99 °C.

As for `O=C(O)c1cc(=O)c2cc(-c3ccccc3)ccc2s1`, the melting point was determined as 220 °C.

With `CC(=O)SCC(CC(C)C)C(=O)Nc1cccc(C(=O)O)c1` (centres undefined), the melting point was in the range of 184 to 186 °C.

Compound `COc1ccc(C(=O)Nc2ccccc2)cc1NS(=O)(=O)c1ccccc1Cl` yielded a melting point of 107 to 109 °C.

In the case of `CCc1cc(Oc2ccc([C@H](O)[C@@H](Cc3cccc(OC(F)(F)C(F)F)c3)NC(=O)c3cccc4c3C=CCCC4)cc2)ccc1Cl` (racemic), the melting point was 116 to 117 °C.

In the case of `CCCCCCCCCCCC(=O)NC1C(C)C(c2ccccc2)NC(c2ccccc2)C1C` (centres undefined), the melting point is 112 to 114 °C.

On to `CC(=O)Nc1nc2c(s1)-c1c(c(-c3c[nH]cn3)nn1-c1ccccc1Cl)CC2`, for which the melting point fell in the range of 287 to 288 °C.

In turn, `COC(=O)c1cccc(C(=O)NC2N=C(c3ccccc3F)c3ccccc3N(CC(=O)N3CC4CCC(CC4)C3)C2=O)c1` (racemic) had a melting point of 166 to 177 °C.

In turn, `Nc1cccc(C#CC=Cc2cccc(N)c2)c1` yielded a melting point of 105 to 106 °C.

Compound `Cc1csc(CC(=O)O)c1` displayed a melting point of 49 °C.

The compound `ClCN1C=C(Cl)C(Cl)=CN1` showed a melting point of 69 to 70 °C.

In the case of `Cc1cc(CC(=O)OC(C)(C)C)ccc1NC(=O)Nc1ccccc1C(F)(F)F`, the melting point lay within 178 to 180 °C.

As for `OC12N=C(c3ccccc3)SC1Cc1cc(Cl)ccc12` (centres undefined), the melting point was 155 °C.

In turn, `CC1(c2ccc(OCc3ccccc3)c(C3CO3)c2)OCCO1` (centres undefined) returned a melting point of 121 to 123 °C.

`O=[N+]([O-])c1cc(CCl)cc([N+](=O)[O-])c1CCl` gave a melting point of 106 °C.

Compound `CN(C)C1(C(N)=O)CCCCC1` displayed a melting point of 65 to 69 °C.

Consider `O=C(O)c1ccc(C(=O)O)c(O)c1`, for which the melting point is greater than 300 °C.

Take `CCOC(=O)C1=C(C)NC(C)=C(C(=O)OCCN2C(=O)c3ccccc3C2=O)C1c1cccc([N+](=O)[O-])c1` (centres undefined): the melting point was 194 to 195 °C.

As to `CS(=O)(=O)N(c1cc2c(cc1Oc1ccccc1)C(C#N)CC2)S(C)(=O)=O` (centres undefined), the melting point came out at 200 °C.

Compound `Cn1c(C(F)(F)F)cc(=O)n(-c2c(O)cc(Cl)cc2F)c1=O` showed a melting point of 143 to 144 °C.

With `CS(=O)(=O)CCCC1(C(=O)O)CCC1`, the melting point is 113 to 116 °C.

`Clc1ccc(C2CN(C(c3ccccc3)c3ccccc3)C2)cc1`: the melting point amounted to 82 °C.

Compound `COC1=CC(=O)N(Cc2ncn(C(c3ccccc3)(c3ccccc3)c3ccccc3)c2C)CC1` displayed a melting point of 181 to 184 °C.

The compound `CCCCCCCCCCCCCCCCNC(=O)c1cc(OCCN=C=S)c2ccccc2c1O` yielded a melting point of 90 to 91 °C.

As for `CSC1=Nc2ccccc2Cn2cccc21`, the melting point fell in the range of 148 to 150 °C.

Compound `Oc1ccc(C(=C(c2ccccc2)C(F)(F)F)c2ccc(OCCN3CCOCC3)cc2)cc1` displayed a melting point of 154 to 157 °C.

Take `COC(=O)CCc1cc2cc(Cl)ccc2n1S(=O)(=O)c1ccc(C(C)C)cc1`: the melting point fell in the range of 90 to 94 °C.

Consider `CC(C)C1CC1(O)C(=O)O` (centres undefined), for which the melting point lay in the range of 135 to 138 °C.

With `CN(Cc1ccc(F)cc1)C(=O)c1cnc2c([N+](=O)[O-])cccc2c1Cl`, the melting point lay within 135 to 137 °C.

`C[C@@H]1CN(C(=O)OC(C)(C)C)Cc2cc3cc(Br)c(F)cc3n21` came in with a melting point of 116 to 118 °C.

The values are drawn from a melting point compilation (Tetko et al.; mined from patent text by program, amines drawn as free bases though some values may be those of a salt).
